Assay results as given in US9474777B2, “Plant extract and the process for treating hepatic fibrosis and liver cancer” (Development Center for Biotechnology, priority 2013, dated 2016).

What was measured:
[1] = test system: recurrence of liver cirrhosis and liver cancers after removal of DEN-induced tumor; assay: Recurrence model after removal of DEN-induced tumor; type: in vivo, Wistar rats; conditions: pirfenidone 200 mg/kg/day
Experimental: Specifically, five-to-six weeks old Wistar rats were obtained from the animal center at the National Taiwan University Medical School. The rats were given 100 ppm DEN drinking water, and they were weighed weekly at feeding times. […] The feeding of DEN was continued for 9 weeks, which is sufficient to induce the occurrence of liver cirrhosis and liver cancer. Liver cancers were removed from the rats for cancer recurrence study. The test samples (GP-T) were tested at two different concentrations and administered to the rats for four weeks (from the ninth to the thirteenth week). Pirfenidone was used as a positive control. In the tests, each group included 6-8 rats. The tests were conducted using the rat model and different concentrations of the GP test samples in the food to assess their effects on liver fibrosis and liver cancer recurrence. Male five-to-six weeks old Wistar rats were obtained from the animal center at the National Taiwan University Medical School. The rats were fed drinking water containing 100 ppm carcinogen, diethylnitrosamine (DEN). During the feeding period, the rats were weighed weekly. The concentrations of DEN were increased according to the body weight increases. After continuous feeding for 9 weeks, DEN was sufficient to induce liver cirrhosis and liver cancer in rats. The liver cancers were removed by surgery after the 9 week period. Then, the rats were treated with two different doses of the test drugs (GP-T) for four weeks (from the ninth week to the thirteenth week). Some rats were given pirfenidone as positive control. In this experiments, each group has n=6-8 rats. This experiment uses a rat model, coupled with feeding the rats with different doses of the test drugs, to evaluate the impacts of the test drugs on the recurrence of liver cirrhosis and liver cancers.

[2] = test system: diethylnitrosamine (DEN)-induced liver fibrosis and liver cancer; assay: DEN-induced liver fibrosis and liver cancer model; type: in vivo, Wistar rats
Text: Specifically, five-to-six weeks old Wistar rats were obtained from the animal center at the National Taiwan University Medical School. The rats were given 100 ppm DEN drinking water, and they were weighed weekly at feeding times. […] The feeding of DEN was continued for 9 weeks, which is sufficient to induce the occurrence of liver cirrhosis and liver cancer. Liver cancers were removed from the rats for cancer recurrence study.

| Structure (SMILES) | prophylactic effect on the recurrence of carcinogenesis after tumor removal [1] | hydroxyproline content in liver ([1]; FIG. 14D) | carcinogenesis presented by GST-p(+) density ([1]; four weeks after tumor ablation) | Survival Rate ([2]; sorafenib 30 mg/kg, 6 weeks, DEN rats) [%] | number of activated astrocytes (α-SMA staining) ([2]; sorafenib group (S), 30 mg/kg) |
| --- | --- | --- | --- | --- | --- |
| Cc1ccc(=O)n(-c2ccccc2)c1 [pirfenidone] | no prophylactic effect | decreased significantly | decreased |  |  |
| CNC(=O)c1cc(Oc2ccc(NC(=O)Nc3ccc(Cl)c(C(F)(F)F)c3)cc2)ccn1 [Sorafenib] |  |  |  | 100 | significantly reduced number of activated astrocytes |
